Here are results for 20 compounds from patent US20100160369A1, “S1P1 Agonists and Methods of Making And Using” (EXELIXIS, INC., priority 2008, published 2010).

Where a name gives a salt, the structure may show the parent alone.

For orientation: EC50 means the concentration that produces a half-maximal response.

Assay [1] concerns the target T1, S1P1 (Homo sapiens, UniProt P21453). The experiment in a line: CNG cAMP Assay (Assay 1). Type of assay: cell-based. Further details: host or cells: HEK293 cells expressing the CNG channel. The conditions noted are these: read-out: Assay 1 EC50. In outline: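 HEK293 cells expressing CNG channel and S1P1, membrane-potential dye loaded; compounds (top 10 μM, 10-point 3-fold, 1.8% DMSO) added with 25 μM Ro 20-1724, 500 nM NECA and 10 nM S1P for 90 min. T90/T0 fluorescence (Ex 350/Em 590 nm) normalised to NECA-alone vs DMSO; EC50 fitted.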
Target sequence in this assay (P21453 whole entry): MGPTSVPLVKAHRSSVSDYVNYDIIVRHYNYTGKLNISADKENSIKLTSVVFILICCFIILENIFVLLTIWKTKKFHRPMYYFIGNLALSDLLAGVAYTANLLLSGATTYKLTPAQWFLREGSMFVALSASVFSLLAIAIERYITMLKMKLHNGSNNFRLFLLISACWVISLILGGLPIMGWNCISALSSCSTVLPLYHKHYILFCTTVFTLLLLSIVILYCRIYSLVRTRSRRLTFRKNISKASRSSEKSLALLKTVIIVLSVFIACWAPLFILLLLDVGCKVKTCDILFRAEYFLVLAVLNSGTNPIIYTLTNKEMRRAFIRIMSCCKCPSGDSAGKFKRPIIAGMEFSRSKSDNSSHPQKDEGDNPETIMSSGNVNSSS

A further assay concerns the target T2, hS1P1R (hEdg1) (Homo sapiens, UniProt P21453).
T2 construct: purchased Lonza
Kind of assay: hS1P1R GTPγS Binding Assay (Assay 3a). The assay is classed as biochemical. How it is done:
The hS1P1R GTPγS binding assay was carried out at room temperature in 96 well non-binding surface assay plates. The reaction in each well contained 4 μg hS1P1R (hEdg1) membrane protein (Lonza), 30 μM GDP, 0.1 nM [^35S]GTPγS, 0.25% fatty acid free BSA, and serially diluted hS1P1R agonist compound in 200 μL assay buffer (25 mM Tris-HCl PH 7.9, 100 mM NaCl, 3 mM MgCl2, and 0.2 mM EGTA). After one hour of incubation, 0.9 mg of WGA (Wheat Germ Agglutinin) SPA beads in 50 μL of assay buffer was added to each well. The SPA beads were spun down after an additional one hour incubation. The radioactivity of the bound GTPγS was counted by reading the assay plate using a MicroBeta.
Assay 1 is the CNG cAMP Assay as described in Biological Example 1. Assay 2a and 2b are the Tango™ β-arrestin Recruitment Assay in HEK293 and U2OS cells, respectively, as described in Biological Example 2. Assay 3a is the hS1P1R GTPγS Binding Assay as described in Biological Example 3. Assay 3b is the GTP-Eu Binding Assay as described in Biological Example 3. EC50's were measured unless otherwise noted. […] In the table, “nt” means the Compound was not tested and “no” means the compound was tested but had no measurable activity under the assay conditions employed.

Assay [2] addresses T1, S1P1. The experiment in a line: Tango β-arrestin Recruitment Assay in HEK293 cells (Assay 2a). Further details: linker with TEV protease (N1a) cleavage site (C); host or cells: HEK293, transiently transfected. The conditions noted are these: Tango β-arrestin Recruitment Assay, read-out: Assay 2a EC50. Type of assay: cell-based. In outline:
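HEK293 cells transiently expressing S1P1 (TEV-cleavable tTA fusion) with β-arrestin2–TEV; compounds up to 10 μM, 10-point 3-fold, 1% DMSO, 30 min then 16–18 h at 37 °C. Luciferase luminescence normalised to 5 μM S1P as 100% and DMSO as background; EC50 from percent-activity curves.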
Target sequence in this assay (P21453 whole entry): as above
Target sequence in this assay (P32121 whole entry partner): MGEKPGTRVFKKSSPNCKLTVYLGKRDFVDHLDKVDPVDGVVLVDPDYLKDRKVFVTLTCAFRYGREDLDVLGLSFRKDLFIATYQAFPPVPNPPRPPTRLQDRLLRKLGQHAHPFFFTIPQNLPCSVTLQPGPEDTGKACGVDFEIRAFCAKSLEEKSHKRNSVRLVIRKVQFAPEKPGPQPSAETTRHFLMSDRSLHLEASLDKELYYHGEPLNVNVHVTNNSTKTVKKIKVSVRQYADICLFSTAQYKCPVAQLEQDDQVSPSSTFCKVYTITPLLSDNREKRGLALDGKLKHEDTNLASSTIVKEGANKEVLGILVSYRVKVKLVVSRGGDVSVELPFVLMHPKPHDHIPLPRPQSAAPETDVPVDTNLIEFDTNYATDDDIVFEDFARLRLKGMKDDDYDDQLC
In general terms: Recruitment of arrestin is a read-out of receptor activation apart from second messengers.

Assay [3] addresses T1, S1P1. Kind of assay: Tango β-arrestin Recruitment Assay in U2OS cells (Assay 2b). Type of assay: cell-based. Also noted: linker with TEV protease (N1a) cleavage site (C). The conditions noted are these: Tango β-arrestin Recruitment Assay, read-out: Assay 2b EC50. In outline:
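U2OS cells expressing S1P1 and reporter, serum-starved 48 h, treated with compound (10-point 3-fold series, top 1 μM, 1% DMSO) overnight at 37 °C; β-lactamase substrate added 2 h at room temperature. F460/F530 ratio normalised to 1 μM S1P (100%) and DMSO; EC50 from concentration-response.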
Target sequence in this assay (P21453 whole entry): as the sequence (P21453 whole entry) above
Target sequence in this assay (P32121 whole entry partner): as the sequence (P32121 whole entry partner) above

T2 sequence (P21453 whole entry): as the sequence (P21453 whole entry) above

`O=C(O)CCc1c(Cl)cc(-c2noc(-c3cn4cc(C(F)(F)F)cc(Cl)c4n3)n2)cc1Cl` [Entry 21]: the EC50 at S1P1 [1] is ≤ 100 nM; at hS1P1R (hEdg1), 500 to 1000 nM; on S1P1 [2], ≤ 100 nM.

Turning to `O=C(O)C1CC1c1cc(Cl)c(-c2noc(-c3cn4cc(C(F)(F)F)cc(Br)c4n3)n2)cc1F` (stereo not drawn) [Example 89, 2-(4-{5-[8-bromo-6-(trifluoromethyl)imidazo[1,2-a]pyridin-2-yl]-1,2,4-oxadiazol-3-yl}-5-chloro-2-fluorophenyl)cyclopropanecarboxylic acid], the results for the EC50 at S1P1 [1], at hS1P1R (hEdg1) and on S1P1 [2] were ≤ 100 nM, 500 to 1000 nM and ≤ 100 nM, respectively.

On to `OCC(O)COc1cc(Cl)c(-c2noc(-c3cn4cc(I)cc(Cl)c4n3)n2)cc1Cl` (stereo not drawn) [Example 204, 3-({2,5-dichloro-4-[5-(8-chloro-6-iodoimidazo[1,2-a]pyridin-2-yl)-1,2,4-oxadiazol-3-yl]phenyl}oxy)propane-1,2-diol], for which the EC50 is 100 to 500 nM at hS1P1R (hEdg1) and ≤ 100 nM at S1P1 [2].

For the compound `O=C(O)CCc1c(Cl)cc(-c2nnc(-c3cn4cc(C(F)(F)F)cc(Cl)c4n3)s2)cc1Cl` [Example 206, 3-(2,6-dichloro-4-{5-[8-chloro-6-(trifluoromethyl)imidazo[1,2-a]pyridin-2-yl]-1,3,4-thiadiazol-2-yl}phenyl)propanoic acid], the EC50 on hS1P1R (hEdg1) was 1000 to 5000 nM; at S1P1 [2], ≤ 100 nM.

Regarding `O=C(O)CCc1cc(Cl)c(-c2nnc(-c3cn4cc(I)cc(Cl)c4n3)s2)cc1F` [Example 207, 3-{5-chloro-4-[5-(8-chloro-6-iodoimidazo[1,2-a]pyridin-2-yl)-1,3,4-thiadiazol-2-yl]-2-fluorophenyl}propanoic acid], the EC50 at hS1P1R (hEdg1) is 1000 to 5000 nM; on S1P1 [2], ≤ 100 nM.

As for `OCC(O)COc1c(Cl)cc(-c2noc(-c3cn4cc(C(F)(F)F)cc(Cl)c4n3)n2)cc1Cl` (stereo not drawn) [Example 209, 3-[(2,6-dichloro-4-{5-[8-chloro-6-(trifluoromethyl)imidazo[1,2-a]pyridin-2-yl]-1,2,4-oxadiazol-3-yl}phenyl)oxy]propane-1,2-diol], the EC50 on hS1P1R (hEdg1) and at S1P1 [2] was ≤ 100 nM throughout.

Turning to `NC(CO)COc1ccc(-c2noc(-c3cn4cc(C(F)(F)F)cc(Cl)c4n3)n2)c(Cl)c1` (stereo not drawn) [Example 213, 2-amino-3-[(3-chloro-4-{5-[8-chloro-6-(trifluoromethyl)imidazo[1,2-a]pyridin-2-yl]-1,2,4-oxadiazol-3-yl}phenyl)oxy]propan-1-ol], the concentration giving a half-maximal response (EC50) at S1P1 [1], at S1P1 [3] and at S1P1 [2] was ≤ 100 nM each time.

For `O=C(O)CCc1cc(Cl)c(-c2nc(-c3cn4cc(I)cc(Cl)c4n3)no2)cc1F` [Example 240, 3-{5-chloro-4-[3-(8-chloro-6-iodoimidazo[1,2-a]pyridin-2-yl)-1,2,4-oxadiazol-5-yl]-2-fluorophenyl}propanoic acid], the EC50 was 500 to 1000 nM at hS1P1R (hEdg1) and ≤ 100 nM on S1P1 [2].

For `Cc1cc(-c2nnc(-c3cn4cc(C(F)(F)F)cc(Cl)c4n3)s2)cc(C)c1OCC(O)CO` (stereo not drawn) [Example 246, 3-[(4-{5-[8-chloro-6-(trifluoromethyl)imidazo[1,2-a]pyridin-2-yl]-1,3,4-thiadiazol-2-yl}-2,6-dimethylphenyl)oxy]propane-1,2-diol], the EC50 at S1P1 [1], on S1P1 [3] and on S1P1 [2] was ≤ 100 nM in each case.

For `OCC(O)COc1cc(Cl)c(-c2nnc(-c3cn4cc(C(F)(F)F)cc(Cl)c4n3)s2)cc1F` (stereo not drawn) [Example 247, 3-[(5-chloro-4-{5-[8-chloro-6-(trifluoromethyl)imidazo[1,2-a]pyridin-2-yl]-1,3,4-thiadiazol-2-yl}-2-fluorophenyl)oxy]propane-1,2-diol], the figures for the EC50 on S1P1 [1], on S1P1 [3] and at S1P1 [2] were ≤ 100 nM, 100 to 500 nM and ≤ 100 nM, respectively.

For `CC(Cc1cc(Cl)c(-c2nnc(-c3cn4cc(C(F)(F)F)cc(Cl)c4n3)s2)cc1Cl)C(=O)O` (stereo not drawn) [Example 285, 3-(2,5-dichloro-4-{5-[8-chloro-6-(trifluoromethyl)imidazo[1,2-a]pyridin-2-yl]-1,3,4-thiadiazol-2-yl}phenyl)-2-methylpropanoic acid], the results for the EC50 on hS1P1R (hEdg1) and on S1P1 [2] were 1000 to 5000 nM and ≤ 100 nM, respectively.

As to `C[C@@H](O)COc1cc(Cl)c(-c2noc(-c3cn4cc(C(F)(F)F)cc(Br)c4n3)n2)cc1Cl` [Example 312, (2R)-1-[(4-{5-[8-bromo-6-(trifluoromethyl)imidazo[1,2-a]pyridin-2-yl]-1,2,4-oxadiazol-3-yl}-2,5-dichlorophenyl)oxy]propan-2-ol], the EC50 on S1P1 [3] and on S1P1 [2] was ≤ 100 nM in each case.

Regarding `C[C@H](O)COc1cc(Cl)c(-c2noc(-c3cn4cc(C(F)(F)F)cc(Br)c4n3)n2)cc1Cl` [Example 313, (2S)-1-[(4-{5-[8-bromo-6-(trifluoromethyl)imidazo[1,2-a]pyridin-2-yl]-1,2,4-oxadiazol-3-yl}-2,5-dichlorophenyl)oxy]propan-2-ol], the EC50 at S1P1 [3] and at S1P1 [2] was ≤ 100 nM throughout.

On to `OC[C@@H](O)COc1cc(Cl)c(-c2noc(-c3cn4cc(C(F)(F)F)cc(Br)c4n3)n2)cc1Cl` [Example 317, (2R)-3-[(4-{5-[8-bromo-6-(trifluoromethyl)imidazo[1,2-a]pyridin-2-yl]-1,2,4-oxadiazol-3-yl}-2,5-dichlorophenyl)oxy]propane-1,2-diol], for which the EC50 at S1P1 [3] and on S1P1 [2] was ≤ 100 nM in each case.

As for `NC(CO)COc1cc(Cl)c(-c2nnc(-c3cn4cc(C(F)(F)F)cc(Cl)c4n3)s2)cc1F` (stereo not drawn) [Example 321, 2-amino-3-[(5-chloro-4-{5-[8-chloro-6-(trifluoromethyl)imidazo[1,2-a]pyridin-2-yl]-1,3,4-thiadiazol-2-yl}-2-fluorophenyl)oxy]propan-1-ol], the EC50 on S1P1 [3] and on S1P1 [2] was ≤ 100 nM in each case.

For the compound `O=P(O)(O)OC[C@H](O)COc1cc(Cl)c(-c2noc(-c3cn4cc(C(F)(F)F)cc(Cl)c4n3)n2)cc1Cl` [Example 322, (2R)-3-[(2,5-dichloro-4-{5-[8-chloro-6-(trifluoromethyl)imidazo[1,2-a]pyridin-2-yl]-1,2,4-oxadiazol-3-yl}phenyl)oxy]-2-hydroxypropyl dihydrogen phosphate], the EC50 at S1P1 [3] and at S1P1 [2] was ≤ 100 nM in each case.

Take `C[C@H](COc1cc(Cl)c(-c2noc(-c3cn4cc(C(F)(F)F)cc(Br)c4n3)n2)cc1Cl)OP(=O)(O)O` [Example 324, (1R)-2-[(4-{5-[8-bromo-6-(trifluoromethyl)imidazo[1,2-a]pyridin-2-yl]-1,2,4-oxadiazol-3-yl}-2,5-dichlorophenyl)oxy]-1-methylethyl dihydrogen phosphate]: the EC50 at S1P1 [3] and at S1P1 [2] was ≤ 100 nM each time.

Consider `C[C@@H](COc1cc(Cl)c(-c2noc(-c3cn4cc(C(F)(F)F)cc(Cl)c4n3)n2)cc1Cl)OS(=O)(=O)O` [Example 326, (1S)-2-[(2,5-dichloro-4-{5-[8-chloro-6-(trifluoromethyl)imidazo[1,2-a]pyridin-2-yl]-1,2,4-oxadiazol-3-yl}phenyl)oxy]-1-methylethyl hydrogen sulfate], for which the EC50 at S1P1 [3] and at S1P1 [2] was ≤ 100 nM each time.

For the compound `CC(O)(CO)COc1cc(Cl)c(-c2noc(-c3cn4cc(C(F)(F)F)cc(Cl)c4n3)n2)cc1Cl` (stereo not drawn) [Example 330, 3-[(2,5-dichloro-4-{5-[8-chloro-6-(trifluoromethyl)imidazo[1,2-a]pyridin-2-yl]-1,2,4-oxadiazol-3-yl}phenyl)oxy]-2-methylpropane-1,2-diol], the EC50 at S1P1 [3] and at S1P1 [2] was ≤ 100 nM each time.

`N[C@H](CO)COc1cc(Cl)c(-c2nnc(-c3cn4cc(C(F)(F)F)cc(Cl)c4n3)s2)cc1F` [Example 334, (2R)-2-Amino-3-[(5-chloro-4-{5-[8-chloro-6-(trifluoromethyl)imidazo[1,2-a]pyridin-2-yl]-1,3,4-thiazol-2-yl}-2-fluorophenyl)oxy]propan-1-ol]: the EC50 on S1P1 [3] and at S1P1 [2] was ≤ 100 nM in each case.
